Assay results reported in the NIST ThermoML archive (doi:10.1021/acs.jced.8b00547).

Experiments:
[1] = refractive index (Na D-line) (dimensionless); xn = mol fraction of the nth substance listed; details: 101 kPa, Liquid, Standard Abbe refractometry
[2] = xn = mol fraction of the nth substance listed; details: 101 kPa, Liquid; for speed of sound: Single path-length method; for mass density: Vibrating tube method

CCCC(C)=O [pentan-2-one] + CCC(C)O
Details | mass density, [2] [kg/m3] | refractive index, [1] | speed of sound, [2] [m/s]
298.15 K, x1 = 0.1227 | 801.36 | 1.39423 | 1212.6
298.15 K, x1 = 0.2361 | 800.45 | 1.39353 | 1213.1
298.15 K, x1 = 0.3467 | 800.01 | 1.3928 | 1213.5
298.15 K, x1 = 0.4522 | 799.88 | 1.39205 | 1214
298.15 K, x1 = 0.5521 | 799.79 | 1.39133 | 1214.3
298.15 K, x1 = 0.6518 | 799.88 | 1.39059 | 1214.7
298.15 K, x1 = 0.744 | 800.22 | 1.38988 | 1215.1
298.15 K, x1 = 0.8299 | 800.65 | 1.38922 | 1215.4
298.15 K, x1 = 0.919 | 801.23 | 1.38853 | 1215.7
298.15 K, x1 = 1 | 802.09 | 1.38782 | 1216
308.15 K, x1 = 0.1227 | 792.32 | 1.38958 | 1175.7
308.15 K, x1 = 0.2361 | 791.24 | 1.38887 | 1175.5
308.15 K, x1 = 0.3467 | 790.78 | 1.38809 | 1175.4
308.15 K, x1 = 0.4522 | 790.51 | 1.38731 | 1175.3
308.15 K, x1 = 0.5521 | 790.25 | 1.38655 | 1175.2
308.15 K, x1 = 0.6518 | 790.23 | 1.38577 | 1175
308.15 K, x1 = 0.744 | 790.31 | 1.38503 | 1174.9
308.15 K, x1 = 0.8299 | 790.62 | 1.38434 | 1174.7
308.15 K, x1 = 0.919 | 791.25 | 1.38358 | 1174.6
308.15 K, x1 = 1 | 792.32 | 1.38284 | 1174.4
318.15 K, x1 = 0.1227 | 783.39 | 1.38489 | 1138.5
318.15 K, x1 = 0.2361 | 782.07 | 1.38415 | 1137.9
318.15 K, x1 = 0.3467 | 781.42 | 1.38335 | 1137.2
318.15 K, x1 = 0.4522 | 780.93 | 1.38254 | 1136.6
318.15 K, x1 = 0.5521 | 780.55 | 1.38177 | 1136.1
318.15 K, x1 = 0.6518 | 780.41 | 1.38095 | 1135.5
318.15 K, x1 = 0.744 | 780.42 | 1.38018 | 1134.9
318.15 K, x1 = 0.8299 | 780.73 | 1.37943 | 1134.4
318.15 K, x1 = 0.919 | 781.32 | 1.3786 | 1133.8
318.15 K, x1 = 1 | 782.44 | 1.37782 | 1133.3
328.15 K, x1 = 0.1227 | 773.65 | 1.37968 | 1101
328.15 K, x1 = 0.2361 | 772.15 | 1.37897 | 1100.1
328.15 K, x1 = 0.3467 | 771.4 | 1.37819 | 1099.2
328.15 K, x1 = 0.4522 | 770.91 | 1.3774 | 1098.3
328.15 K, x1 = 0.5521 | 770.35 | 1.37666 | 1097.5
328.15 K, x1 = 0.6518 | 770.02 | 1.37589 | 1096.6
328.15 K, x1 = 0.744 | 770.12 | 1.37513 | 1095.8
328.15 K, x1 = 0.8299 | 770.56 | 1.37437 | 1095.1
328.15 K, x1 = 0.919 | 771.22 | 1.37356 | 1094.3
328.15 K, x1 = 1 | 772.43 | 1.3728 | 1093.6
338.15 K, x1 = 0.1227 | 763.26 | 1.37559 | 1063
338.15 K, x1 = 0.2361 | 761.48 | 1.37472 | 1061.8
338.15 K, x1 = 0.3467 | 760.59 | 1.37383 | 1060.7
338.15 K, x1 = 0.4522 | 760.08 | 1.37293 | 1059.6
338.15 K, x1 = 0.5521 | 759.46 | 1.37206 | 1058.6
338.15 K, x1 = 0.6518 | 759.14 | 1.37116 | 1057.6
338.15 K, x1 = 0.744 | 759.29 | 1.37027 | 1056.6
338.15 K, x1 = 0.8299 | 759.87 | 1.36944 | 1055.7
338.15 K, x1 = 0.919 | 760.73 | 1.36852 | 1054.8
338.15 K, x1 = 1 | 762.27 | 1.36764 | 1053.8
